Data reported in the supplement of paper PMC11451515.

System: P12-Ichikawa
Test: cell viability relative to DMSO control; higher = less cytotoxic
Conditions: 48 h
Outline: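 Three leukemia lines were tested: NOMO1 and SEM at 500 cells/well and P12-Ichikawa at 1000 cells/well. Each was adapted for at least four passages in each medium and seeded in 5 μl in 1536-well plates, and library compounds in DMSO were pin-dosed from 47 μM to 0.79 nM in 11 threefold steps. After 48 h at 37°C, CellTiter-Glo One luminescence was read. Viability is a percentage relative to DMSO wells on each plate, with cell-free wells as background.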

[1] = HPLM + 10% dialyzed FBS, 0.000781 µM
[2] = HPLM + 10% dialyzed FBS, 0.00234 µM
[3] = HPLM + 10% dialyzed FBS, 0.00702 µM
[4] = HPLM + 10% dialyzed FBS, 0.0211 µM
[5] = HPLM + 10% dialyzed FBS, 0.0632 µM
[6] = HPLM + 10% dialyzed FBS, 0.19 µM
[7] = HPLM + 10% dialyzed FBS, 0.569 µM
[8] = HPLM + 10% dialyzed FBS, 1.71 µM
[9] = HPLM + 10% dialyzed FBS, 5.12 µM
[10] = HPLM + 10% dialyzed FBS, 15.4 µM
[11] = HPLM + 10% dialyzed FBS, 46.1 µM
[12] = RPMI 5 mM glucose + 10% FBS, 0.000781 µM
[13] = RPMI 5 mM glucose + 10% FBS, 0.00234 µM
[14] = RPMI 5 mM glucose + 10% FBS, 0.00702 µM
[15] = RPMI 5 mM glucose + 10% FBS, 0.0211 µM
[16] = RPMI 5 mM glucose + 10% FBS, 0.0632 µM
[17] = RPMI 5 mM glucose + 10% FBS, 0.19 µM
[18] = RPMI 5 mM glucose + 10% FBS, 0.569 µM
[19] = RPMI 5 mM glucose + 10% FBS, 1.71 µM
[20] = RPMI 5 mM glucose + 10% FBS, 5.12 µM
[21] = RPMI 5 mM glucose + 10% FBS, 15.4 µM
[22] = RPMI 5 mM glucose + 10% FBS, 46.1 µM
[23] = RPMI 5 mM glucose + 10% dialyzed FBS, 0.000781 µM
[24] = RPMI 5 mM glucose + 10% dialyzed FBS, 0.00234 µM
[25] = RPMI 5 mM glucose + 10% dialyzed FBS, 0.00702 µM
[26] = RPMI 5 mM glucose + 10% dialyzed FBS, 0.0211 µM
[27] = RPMI 5 mM glucose + 10% dialyzed FBS, 0.0632 µM
[28] = RPMI 5 mM glucose + 10% dialyzed FBS, 0.19 µM
[29] = RPMI 5 mM glucose + 10% dialyzed FBS, 0.569 µM
[30] = RPMI 5 mM glucose + 10% dialyzed FBS, 1.71 µM
[31] = RPMI 5 mM glucose + 10% dialyzed FBS, 5.12 µM
[32] = RPMI 5 mM glucose + 10% dialyzed FBS, 15.4 µM
[33] = RPMI 5 mM glucose + 10% dialyzed FBS, 46.1 µM

SMILES | cell viability [1] [%] | cell viability [2] [%] | cell viability [3] [%] | cell viability [4] [%] | cell viability [5] [%] | cell viability [6] [%] | cell viability [7] [%] | cell viability [8] [%] | cell viability [9] [%] | cell viability [10] [%] | cell viability [11] [%] | cell viability [12] [%] | cell viability [13] [%] | cell viability [14] [%] | cell viability [15] [%] | cell viability [16] [%] | cell viability [17] [%] | cell viability [18] [%] | cell viability [19] [%] | cell viability [20] [%] | cell viability [21] [%] | cell viability [22] [%] | cell viability [23] [%] | cell viability [24] [%] | cell viability [25] [%] | cell viability [26] [%] | cell viability [27] [%] | cell viability [28] [%] | cell viability [29] [%] | cell viability [30] [%] | cell viability [31] [%] | cell viability [32] [%] | cell viability [33] [%]
N[C@@H](Cc1ccc(O)c(O)c1)C(=O)O | 122 | 124 | 118 | 119 | 130 | 123 | 127 | 122 | 125 | 131 | 121 | – | – | – | – | – | – | – | – | – | – | – | – | – | – | – | – | – | – | – | – | – | –
N#Cc1ccc(NC(=O)Nc2ccccc2Br)c2nn[nH]c12 | 101 | 109 | 109 | 115 | 119 | 123 | 122 | 116 | 125 | 126 | 79.1 | 101 | 109 | 112 | 120 | 118 | 134 | 122 | 117 | 128 | 127 | 122 | 103 | 110 | 111 | 108 | 117 | 112 | 123 | 109 | 121 | 125 | 95.7
Cc1ccc([S+](=O)([O-])Nc2cc(Cl)ccc2C(=O)Nc2nc(-c3ccccc3)cs2)cc1 | – | – | – | – | – | – | – | – | – | – | – | – | – | – | – | – | – | – | – | – | – | – | 124 | 130 | 117 | 123 | 128 | 119 | 117 | 116 | 114 | 101 | 26.6
COc1cc(Cl)cn2c(-c3cccc(NC4CNC4)n3)cnc12 | 125 | 121 | 131 | 125 | 129 | 130 | 131 | 135 | 129 | 127 | 139 | – | – | – | – | – | – | – | – | – | – | – | – | – | – | – | – | – | – | – | – | – | –
COc1ccc(C2(C#N)CCC(C(=O)O)CC2)cc1OC1CCCC1 (configuration not stated) | 96.2 | 105 | 108 | 108 | 104 | 107 | 103 | 99.2 | 105 | 108 | 109 | 94.8 | 97.6 | 96.6 | 95.2 | 96.8 | 101 | 106 | 103 | 97.9 | 103 | 96.2 | 91.5 | 95.6 | 92.8 | 93.4 | 101 | 102 | 100 | 108 | 94.3 | 100 | 87.9
CC(C)(Sc1ccc(CCN(CCCCC2CCCCC2)C(=O)NC2CCCCC2)cc1)C(=O)O | 114 | 115 | 116 | 115 | 110 | 109 | 111 | 105 | 107 | 101 | 83.4 | 111 | 112 | 106 | 110 | 109 | 111 | 115 | 102 | 107 | 89 | 86.2 | 113 | 110 | 114 | 122 | 116 | 113 | 104 | 111 | 104 | 102 | 73.5
NCCc1ccc(O)c(O)c1 | – | – | – | – | – | – | – | – | – | – | – | – | – | – | – | – | – | – | – | – | – | – | 128 | 124 | 123 | 126 | 131 | 123 | 129 | 121 | 121 | 124 | 110
O=C1CCCC(=O)C1C(=O)c1ccc(C(F)(F)F)cc1[N+](=O)[O-] | 106 | 106 | 108 | 118 | 112 | 113 | 106 | 105 | 110 | 98.3 | 100 | 123 | 116 | 114 | 123 | 113 | 109 | 119 | 110 | 111 | 109 | 105 | 113 | 113 | 107 | 110 | 115 | 110 | 108 | 110 | 108 | 104 | 99.5
CC(C)[N+]1(C)C2CCC1CC(OC(=O)C(CO)c1ccccc1)C2.O.[Br-] (configuration not stated) | 98.5 | 111 | 116 | 112 | 123 | 124 | 123 | 109 | 50 | 14.1 | 7.93 | 125 | 123 | 129 | 126 | 128 | 125 | 137 | 132 | 127 | 52.5 | 13.8 | 113 | 113 | 119 | 117 | 124 | 112 | 118 | 115 | 102 | 34 | 19.3
C[N]1C=C(C=N1)C2=CC=C3N=CC\4=C(N(C(=O)\C=C4)C5=CC6=C(CCN6C(=O)C=C)C=C5)C3=C2 | 106 | 121 | 109 | 114 | 112 | 115 | 105 | 95.4 | 79.9 | 20.8 | 20.4 | 123 | 112 | 118 | 114 | 110 | 113 | 111 | 98 | 74.6 | 7.13 | 5.07 | 116 | 128 | 117 | 120 | 115 | 126 | 119 | 98.4 | 82.2 | 6.85 | 4.97
